# Assay results: ChEMBL document CHEMBL1201861, “Genomics of Drug Sensitity in Cancer screening data, Wellcome Trust Sanger Institute”
# pIC50: −log10 of the molar value.
# Key:
# Test in all cases: cells
# IGR-1 = format: functional, cell-based, Homo sapiens; conditions: Homo sapiens, IGR-1;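 note: growth inhibition of human IGR-1 cells, read out with a cell viability assay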
# Description: SANGER: Inhibition of human IGR-1 cell growth in a cell viability assay.
# EW-11 = format: functional, cell-based, Homo sapiens; conditions: Homo sapiens, EW-11;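 note: growth inhibition of human EW-11 cells, measured with a cell viability assay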
# Description: SANGER: Inhibition of human EW-11 cell growth in a cell viability assay.
# NCI-H2122 = format: functional, cell-based, Homo sapiens; conditions: Homo sapiens, NCI-H2122;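 note: growth inhibition of the cells, read out with a cell viability assay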
# Description: SANGER: Inhibition of human NCI-H2122 cell growth in a cell viability assay.
# NCI-N87 = format: functional, cell-based, Homo sapiens; conditions: Homo sapiens, NCI-N87;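 note: growth inhibition of human NCI-N87 cells, read out with a cell viability assay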
# Description: SANGER: Inhibition of human NCI-N87 cell growth in a cell viability assay.
# LB996-RCC = format: functional, cell-based; conditions: Homo sapiens
# Description: SANGER: Inhibition of human LB996-RCC cell growth in a cell viability assay.
# SW1990 = format: functional, cell-based, Homo sapiens; conditions: Homo sapiens, SW1990;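 note: cell growth inhibition determined with a viability assay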
# Description: SANGER: Inhibition of human SW1990 cell growth in a cell viability assay.
# LCLC-103H cell line = format: functional, cell-based, Homo sapiens; conditions: Homo sapiens, LCLC-103H
# Description: SANGER: Inhibition of human LCLC-103H cell growth in a cell viability assay.
# GMS-10 = format: functional, cell-based, Homo sapiens; conditions: Homo sapiens, GMS-10;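 note: growth inhibition of GMS-10 cells, read out as cell viability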
# Description: SANGER: Inhibition of human GMS-10 cell growth in a cell viability assay.
# IST-MEL1 = format: functional, cell-based, Homo sapiens; conditions: Homo sapiens, IST-MEL1;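 note: growth inhibition of the cell line, read out with a cell viability assay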
# Description: SANGER: Inhibition of human IST-MEL1 cell growth in a cell viability assay.
# SW684 = format: functional, cell-based, Homo sapiens; conditions: Homo sapiens, SW684;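 note: growth inhibition of human SW684 cells, measured by a cell viability assay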
# Description: SANGER: Inhibition of human SW684 cell growth in a cell viability assay.
# SiHa = format: functional, cell-based, Homo sapiens; conditions: Homo sapiens, SiHa;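 note: Viability-based readout of growth inhibition in SiHa cells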
# Description: SANGER: Inhibition of human SiHa cell growth in a cell viability assay.
# NCI-H69 = format: functional, cell-based; conditions: Homo sapiens;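 note: growth inhibition of the cell line, read out with a cell viability assay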
# Description: SANGER: Inhibition of human NCI-H69 cell growth in a cell viability assay.
# HCT-116 = format: functional, cell-based, Homo sapiens; conditions: Homo sapiens, HCT-116
# Description: SANGER: Inhibition of human HCT-116 cell growth in a cell viability assay.
# KYSE-450 = format: functional, cell-based; conditions: Homo sapiens;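 note: cell growth inhibition measured by a viability assay in human KYSE-450 cells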
# Description: SANGER: Inhibition of human KYSE-450 cell growth in a cell viability assay.
# COR-L88 = format: functional, cell-based; conditions: Homo sapiens;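 note: growth inhibition of COR-L88 cells, read out with a cell viability assay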
# Description: SANGER: Inhibition of human COR-L88 cell growth in a cell viability assay.
# NCI-H810 = format: functional, cell-based, Homo sapiens; conditions: Homo sapiens, NCI-H810;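 note: IC50 reflects inhibition of cancer cell line growth, read out with a cell viability assay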
# Description: SANGER: Inhibition of human NCI-H810 cell growth in a cell viability assay.
# Huh-7 = format: functional, cell-based, Homo sapiens; conditions: Homo sapiens, Huh-7;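 note: HuH-7 cell growth inhibition, read out with a cell viability assay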
# Description: SANGER: Inhibition of human HuH-7 cell growth in a cell viability assay.
# GT3TKB = format: functional, cell-based, Homo sapiens; conditions: Homo sapiens, GT3TKB;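 note: growth inhibition of the cell line, read out with a cell viability assay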
# Description: SANGER: Inhibition of human GT3TKB cell growth in a cell viability assay.
# SF-126 = format: functional, cell-based, Homo sapiens; conditions: Homo sapiens, SF-126;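 note: growth inhibition of human SF126 cells, read out with a cell viability assay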
# Description: SANGER: Inhibition of human SF126 cell growth in a cell viability assay.
# Lu-65 = format: functional, cell-based; conditions: Homo sapiens;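 note: growth inhibition of Lu-65 cancer cells, read out by a cell viability assay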
# Description: SANGER: Inhibition of human LU-65 cell growth in a cell viability assay.
# LN-405 = format: functional, cell-based, Homo sapiens; conditions: Homo sapiens, LN-405
# Description: SANGER: Inhibition of human LN-405 cell growth in a cell viability assay.
# C32 = format: functional, cell-based, Homo sapiens; conditions: Homo sapiens, C32;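 note: cell viability assay, with IC50 reflecting inhibition of C32 cell growth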
# Description: SANGER: Inhibition of human C32 cell growth in a cell viability assay.
# DOK = format: functional, cell-based, Homo sapiens; conditions: Homo sapiens, DOK;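 note: cell viability assay read-out, values reflect inhibition of cell growth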
# Description: SANGER: Inhibition of human DOK cell growth in a cell viability assay.
# IST-MES1 = format: functional, cell-based, Homo sapiens; conditions: Homo sapiens, IST-MES1;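 note: growth inhibition of IST-MES1 cells, measured with a cell viability assay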
# Description: SANGER: Inhibition of human IST-MES1 cell growth in a cell viability assay.
# VA-ES-BJ = format: functional, cell-based, Homo sapiens; conditions: Homo sapiens, VA-ES-BJ;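 note: growth inhibition of the VA-ES-BJ cell line, read out by a cell viability assay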
# Description: SANGER: Inhibition of human VA-ES-BJ cell growth in a cell viability assay.
# SW756 = format: functional, cell-based, Homo sapiens; conditions: Homo sapiens, SW756;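 note: growth inhibition of human SW756 cells, read out with a cell viability assay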
# Description: SANGER: Inhibition of human SW756 cell growth in a cell viability assay.
# CHP-212 = format: functional, cell-based, Homo sapiens; conditions: Homo sapiens, CHP-212
# Description: SANGER: Inhibition of human CHP-212 cell growth in a cell viability assay.
# BFTC-909 = format: functional, cell-based, Homo sapiens; conditions: Homo sapiens, BFTC-909
# Description: SANGER: Inhibition of human BFTC-909 cell growth in a cell viability assay.
# KINGS-1 = format: functional, cell-based, Homo sapiens; conditions: Homo sapiens, KINGS-1;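 note: cell viability assay measuring suppression of KINGS-1 cell growth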
# Description: SANGER: Inhibition of human KINGS-1 cell growth in a cell viability assay.
# Ca-Ski = format: functional, cell-based; conditions: Homo sapiens;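 note: cell viability assay measuring inhibition of Ca-Ski cell growth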
# Description: SANGER: Inhibition of human Ca-Ski cell growth in a cell viability assay.
# OMC-1 = format: functional, cell-based, Homo sapiens; conditions: Homo sapiens, OMC-1;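 note: growth inhibition of the OMC-1 cell line, measured by a cell viability assay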
# Description: SANGER: Inhibition of human OMC-1 cell growth in a cell viability assay.
# OVCAR-3 = format: functional, cell-based, Homo sapiens; conditions: Homo sapiens, OVCAR-3;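 note: growth inhibition of human OVCAR-3 cells, determined by a cell viability assay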
# Description: SANGER: Inhibition of human OVCAR-3 cell growth in a cell viability assay.
# HCC 2998 = format: functional, cell-based, Homo sapiens; conditions: Homo sapiens, HCC 2998;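 note: growth inhibition of human HCC2998 cells, measured with a cell viability read-out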
# Description: SANGER: Inhibition of human HCC2998 cell growth in a cell viability assay.
# MLMA = format: functional, cell-based, Homo sapiens; conditions: Homo sapiens, MLMA;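 note: growth inhibition of MLMA cells (human), determined through a cell viability readout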
# Description: SANGER: Inhibition of human MLMA cell growth in a cell viability assay.
# NCI-H1793 = format: functional, cell-based, Homo sapiens; conditions: Homo sapiens, NCI-H1793;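 note: cell growth inhibition, read out by a cell viability assay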
# Description: SANGER: Inhibition of human NCI-H1793 cell growth in a cell viability assay.
# DU-145 = format: functional, cell-based, Homo sapiens; conditions: Homo sapiens, DU-145
# Description: SANGER: Inhibition of human DU-145 cell growth in a cell viability assay.
# QIMR-WIL = format: functional, cell-based; conditions: Homo sapiens;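 note: growth inhibition of QIMR-WIL cells, read out with a cell viability assay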
# Description: SANGER: Inhibition of human QIMR-WIL cell growth in a cell viability assay.
# DMS-273 = format: functional, cell-based, Homo sapiens; conditions: Homo sapiens, DMS-273
# Description: SANGER: Inhibition of human DMS-273 cell growth in a cell viability assay.
# NCI-H2228 = format: functional, cell-based, Homo sapiens; conditions: Homo sapiens, NCI-H2228;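 note: growth inhibition of human NCI-H2228 cells, read out by a cell viability assay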
# Description: SANGER: Inhibition of human NCI-H2228 cell growth in a cell viability assay.
# HMV-2 cell line = format: functional, cell-based, Homo sapiens; conditions: Homo sapiens, HMV-2;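 note: growth inhibition of HMV-II cells, read out with a cell viability assay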
# Description: SANGER: Inhibition of human HMV-II cell growth in a cell viability assay.
# NCI-H1792 = format: functional, cell-based, Homo sapiens; conditions: Homo sapiens, NCI-H1792;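 note: growth inhibition of human NCI-H1792 cells, read out as cell viability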
# Description: SANGER: Inhibition of human NCI-H1792 cell growth in a cell viability assay.
# Ca9-22 = format: functional, cell-based, Homo sapiens; conditions: Homo sapiens, Ca9-22;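 note: growth inhibition of Ca9-22 cells, read out with a cell viability assay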
# Description: SANGER: Inhibition of human Ca9-22 cell growth in a cell viability assay.
# NB69 = format: functional, cell-based, Homo sapiens; conditions: Homo sapiens, NB69;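 note: growth inhibition of NB69 cells, determined by a cell viability assay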
# Description: SANGER: Inhibition of human NB69 cell growth in a cell viability assay.
# TGBC1TKB = format: functional, cell-based, Homo sapiens; conditions: Homo sapiens, TGBC1TKB;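 note: growth inhibition of TGBC1TKB cells, read out by a cell viability assay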
# Description: SANGER: Inhibition of human TGBC1TKB cell growth in a cell viability assay.
# MIA PaCa-2 = format: functional, cell-based, Homo sapiens; conditions: Homo sapiens, MIA PaCa-2;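 note: growth inhibition of MIA PaCa-2 cells, read out with a cell viability assay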
# Description: SANGER: Inhibition of human MIA-PaCa-2 cell growth in a cell viability assay.
# NCI-H1395 = format: functional, cell-based, Homo sapiens; conditions: Homo sapiens, NCI-H1395;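 note: cell viability assay read-out quantifying reduced proliferation of human NCI-H1395 cells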
# Description: SANGER: Inhibition of human NCI-H1395 cell growth in a cell viability assay.
# NCI-H596 = format: functional, cell-based, Homo sapiens; conditions: Homo sapiens, NCI-H596;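 note: growth inhibition of NCI-H596 cells, read out with a cell viability assay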
# Description: SANGER: Inhibition of human NCI-H596 cell growth in a cell viability assay.
# 5637 = format: functional, cell-based, Homo sapiens; conditions: Homo sapiens
# Description: SANGER: Inhibition of human 5637 cell growth in a cell viability assay.
# UACC-257 = format: functional, cell-based, Homo sapiens; conditions: Homo sapiens, UACC-257
# Description: SANGER: Inhibition of human UACC-257 cell growth in a cell viability assay.
# GI-ME-N = format: functional, cell-based, Homo sapiens; conditions: Homo sapiens, GI-ME-N;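 note: growth inhibition of human GI-ME-N cells, read out with a cell viability assay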
# Description: SANGER: Inhibition of human GI-ME-N cell growth in a cell viability assay.
structure (smiles),measurement,setting,value
Cn1cncc1[C@@](N)(c1ccc(Cl)cc1)c1ccc2c(c1)c(-c1cccc(Cl)c1)cc(=O)n2C [TIPIFARNIB],pIC50,IGR-1,5.79
same,pIC50,EW-11,< 4.80
same,pIC50,NCI-H2122,6.72
same,pIC50,NCI-N87,< 4.80
same,pIC50,LB996-RCC,5.11
same,pIC50,SW1990,4.91
same,pIC50,LCLC-103H cell line,6.89
same,pIC50,GMS-10,< 4.80
same,pIC50,IST-MEL1,5.55
same,pIC50,SW684,< 4.80
same,pIC50,SiHa,< 4.80
same,pIC50,NCI-H69,< 4.80
same,pIC50,HCT-116,5.31
same,pIC50,KYSE-450,6.14
same,pIC50,COR-L88,< 4.80
same,pIC50,NCI-H810,5.79
same,pIC50,Huh-7,5.22
same,pIC50,GT3TKB,5.52
same,pIC50,SF-126,5.41
same,pIC50,Lu-65,< 4.80
same,pIC50,LN-405,< 4.80
same,pIC50,C32,< 4.80
same,pIC50,DOK,< 4.80
same,pIC50,IST-MES1,4.84
same,pIC50,VA-ES-BJ,5.63
same,pIC50,SW756,4.87
same,pIC50,CHP-212,5.86
same,pIC50,BFTC-909,5.08
same,pIC50,KINGS-1,< 4.80
same,pIC50,Ca-Ski,5.04
same,pIC50,OMC-1,5.19
same,pIC50,OVCAR-3,< 4.80
same,pIC50,HCC 2998,6.42
same,pIC50,MLMA,< 4.80
same,pIC50,NCI-H1793,< 4.80
same,pIC50,DU-145,5.06
same,pIC50,QIMR-WIL,7.79
same,pIC50,DMS-273,6.14
same,pIC50,NCI-H2228,5.30
same,pIC50,HMV-2 cell line,6.67
same,pIC50,NCI-H1792,< 4.80
same,pIC50,Ca9-22,5.53
same,pIC50,NB69,< 4.80
same,pIC50,TGBC1TKB,< 4.80
same,pIC50,MIA PaCa-2,6.49
same,pIC50,NCI-H1395,< 4.80
same,pIC50,NCI-H596,5.74
same,pIC50,5637,5.99
same,pIC50,UACC-257,< 4.80
same,pIC50,GI-ME-N,< 4.80
CCC1=C[C@@H]2CN(C1)Cc1c([nH]c3ccccc13)[C@@](C(=O)OC)(c1cc3c(cc1OC)N(C)[C@H]1[C@@](O)(C(=O)OC)[C@H](OC(C)=O)[C@]4(CC)C=CCN5CC[C@]31[C@@H]54)C2 [VINORELBINE],pIC50,IGR-1,8.72
same,pIC50,EW-11,7.37
same,pIC50,NCI-H2122,8.59
same,pIC50,NCI-N87,7.36
same,pIC50,LB996-RCC,< 7.19
same,pIC50,SW1990,< 7.19
same,pIC50,LCLC-103H cell line,8.85
same,pIC50,GMS-10,< 7.19
same,pIC50,IST-MEL1,< 7.19
same,pIC50,SW684,7.62
same,pIC50,SiHa,< 7.19
same,pIC50,NCI-H69,8.20
same,pIC50,HCT-116,8.47
same,pIC50,KYSE-450,8.01
same,pIC50,COR-L88,7.46
same,pIC50,NCI-H810,8.41
same,pIC50,Huh-7,7.53
same,pIC50,GT3TKB,9.13
same,pIC50,SF-126,< 7.19
same,pIC50,Lu-65,7.61
same,pIC50,LN-405,< 7.19
same,pIC50,C32,< 7.19
same,pIC50,DOK,< 7.19
same,pIC50,IST-MES1,< 7.19
same,pIC50,VA-ES-BJ,8.37
same,pIC50,SW756,< 7.19
same,pIC50,CHP-212,7.61
same,pIC50,BFTC-909,7.97
same,pIC50,KINGS-1,< 7.19
same,pIC50,Ca-Ski,7.72
same,pIC50,OMC-1,< 7.19
same,pIC50,OVCAR-3,8.21
same,pIC50,HCC 2998,8.30
same,pIC50,MLMA,7.43
same,pIC50,NCI-H1793,7.72
same,pIC50,DU-145,8.32
same,pIC50,QIMR-WIL,8.52
same,pIC50,DMS-273,8.57
same,pIC50,NCI-H2228,7.89
same,pIC50,HMV-2 cell line,8.32
same,pIC50,NCI-H1792,< 7.19
same,pIC50,Ca9-22,7.99
same,pIC50,NB69,7.34
same,pIC50,TGBC1TKB,< 7.19
same,pIC50,MIA PaCa-2,8.23
same,pIC50,NCI-H1395,7.27
same,pIC50,NCI-H596,< 7.19
same,pIC50,5637,8.12
same,pIC50,UACC-257,7.52
same,pIC50,GI-ME-N,8.24
